Laboratory results as given in patent US20060240463A1, “Markers associated with the therapeutic efficacy of glatiramer acetate” (Rappaport Family Institute for Research in the Medical …, priority 2005, published 2006).

How the values were obtained:
[1] = tested on: dendritic cells; settings: through modulation of dendritic cells; cited from earlier work
[2] = tested on: murine models resembling inflammatory bowel disease; settings: severe ulceration and inflammation; cited from earlier work
[3] = tested on: RR-MS patients; test: European/Canadian MRI trial, GA-treated PGx cohort: response by SNP genotype ("combined" response definition); assay type: in vivo, human
Description: (§1) Two clinical trials, the European/Canadian trial and U.S. pivotal trial, were used to identify associations between GA responsiveness and SNPs in RR-MS patients. Caucasian patients, that had participated in one of two previously completed randomized, double blind, placebo-controlled, multi-centric clinical trials, were solicited to partake in the present study. In both clinical trials, patients were required to have a diagnosis of definite MS (Poser C M, et al. Ann Neurol., 13(3):227-31 (1983) and a relapsing-remitting course (Lublin F D and Reingold S C, Neurology 46(4):907-11 (1996). Ultimately, 73 and 101 DNA samples of Caucasian patients from the U.S. pivotal and European/Canadian MRI trials, respectively, were analyzed. GA dosage was consistent for both trials (i.e. daily 20-mg subcutaneous injection). Table I compares multiple variables between the general cohort study and the PGx cohort study for the European/Canadian trial and the U.S. pivotal trial.
(§2) Subjects were selected from two previously completed randomized, double blind, placebo-controlled, multi-centric clinical trials. In both clinical trials, patients were required to have a diagnosis of definite MS (Poser C M, et al. New diagnostic criteria for multiple sclerosis: guidelines for research protocols. Ann Neurol., (1983);13(3):227-31) and a relapsing-remitting course (Lublin F D, Reingold S C. Defining the clinical course of multiple sclerosis: results of an international survey. National Multiple Sclerosis Society (USA) Advisory Committee on Clinical Trials of New Agents in Multiple Sclerosis. Neurology, (1996);46(4):907-11) 85 (33.9%) out of 251 patients from the U.S. pivotal trial (Johnson K P, et al. Copolymer 1 reduces relapse rate and improves disability in relapsing-remitting multiple sclerosis: results of a phase 111 multicenter, double-blind placebo-controlled trial. The Copolymer 1 Multiple Sclerosis Study Group. Neurology, (1995);45(7):1268-76; Johnson K P, et al. Extended use of glatiramer acetate (COPAXONE) is well tolerated and maintains its clinical effect on multiple sclerosis relapse rate and degree of disability. Copolymer 1 Multiple Sclerosis Study Group. Neurology, (1998);50(3):701-8), and 108 (45.2%) out of 239 patients from the European/Canadian MRI trial (Comi G, Filippi M, Wolinsky J S. European/Canadian multicenter, double-blind, randomized, placebo-controlled study of the effects of glatiramer acetate on magnetic resonance imaging—measured disease activity and burden in patients with relapsing multiple sclerosis. European/Canadian glatiramer acetate Study Group. Ann Neurol., (2001);49(3):290-7) (including patients from Holland, Italy, Belgium, UK, Canada) consented to participate in this study. The same dosage of GA (i.e. daily 20-mg subcutaneous injection) was used in both trials. Although in the original trials patients were equally assigned to either GA- or placebo-treatment, the ratios in the current PGx study were 37:36 and 4952, for the U.S. pivotal and the European/Canadian MRI trials, respectively. Table I indicates various variables between the General Cohort study and the PGx Cohort study for both the European/Canadian trial and the U.S. pivotal trial.
(§3) The primary endpoint in the European/Canadian MRI trial was the accumulated number of TI-enhancing lesions during 9 months, and an additional inclusion criterion was used calling for the presence of at least one TI-enhancing lesion on MRI screening. The primary end-point for the U.S. pivotal trial was the annualized relapse-rate after two years of treatment.
(§4) The procedure used stringent definitions for response to GA therapy. […] For validation purposes response was also treated as a continuous variable where number of new T1-enhancing lesions within the third trimester was analyzed as the […] variable. […]

[4] = tested on: skin graft, thyroid grafts; settings: across minor and major histocompatibility barriers; cited from earlier work
[5] = tested on: RR-MS; settings: in vivo; cited from earlier work
[6] = tested on: MHC class II molecules on murine and human antigen-presenting cells; settings: cited from earlier work
[7] = tested on: RR-MS patients; test: European/Canadian MRI trial, GA-treated PGx cohort: response by SNP genotype ("T1 lesion-free" response definition); assay type: in vivo, human
Description: as §1, §2, §3, §4

[8] = CD80_rs527004, GEN = 0, GA(N = 41)
[9] = CD80_rs527004, GEN = 1, GA(N = 41)
[10] = CD86_rs1129055, GEN = 0, GA(N-35)
[11] = CD86_rs1129055, GEN = 1, GA(N-35)
[12] = CD86_rs1129055, GEN = 2, GA(N-35)
[13] = CD86_rs2001791, GEN = 0, GA(N = 48)
[14] = CD86_rs2001791, GEN = 1, GA(N = 48)
[15] = CD86_rs2001791, GEN = 2, GA(N = 48)
[16] = CD95_rs9827641, GEN = 0, GA(N-47)
[17] = CD95_rs9827641, GEN = 1, GA(N-47)
[18] = CTSS_rs1415148, GEN = 0, GA(N = 47)
[19] = CTSS_rs1415148, GEN = 1, GA(N = 47)
[20] = CTSS_rs1415148, GEN = 2, GA(N = 47)
[21] = CTSS_rs2275235, GEN = 0, GA(N = 43)
[22] = CTSS_rs2275235, GEN = 1, GA(N = 43)
[23] = CTSS_rs2275235, GEN = 2, GA(N = 43)
[24] = MBP_rs470929, GEN = 0, GA(N-32)
[25] = MBP_rs470929, GEN = 1, GA(N-32)
[26] = MBP_rs470929, GEN = 2, GA(N-32)
[27] = TCRB_rs71878, GEN = 0, GA(N = 43)
[28] = TCRB_rs71878, GEN = 1, GA(N = 43)
[29] = TCRB_rs71878, GEN = 2, GA(N = 43)

In the case of glatiramer acetate [GA], the “Th2 cell development and IL-10 production” value [1] is listed as “promotes T helper 2 (Th2) cell development and increased IL-10 production”, the macroscopic colonic damage [2] is listed as “reduce macroscopic colonic damage” and the “percentage of responders out of carriers of genotype” value (“percentage” for short) [3, 8] is listed as “(35.29%)”. The responders/carriers of genotype [3, 8] was 12/34, the “percentage” value [3, 9] was 85.71% and the responders/carriers of genotype [3, 9] was 6/7. The responders/carriers of genotype ([3]; CD80_rs527004, GEN = 2, GA(N = 41)) was 0/0, the “percentage” value [3, 10] was “(16.67%)” and the responders/carriers of genotype [3, 10] was 3/18. The “percentage” value [3, 11] was “(60%)”, the responders/carriers of genotype [3, 11] was 9/15 and the “percentage” value [3, 12] was “(50%)”. The responders/carriers of genotype [3, 12] was 1/2, the “percentage” value [3, 13] was “(28.21%)” and the responders/carriers of genotype [3, 13] was 11/39. The “percentage” value [3, 14] was 62.5%), the responders/carriers of genotype [3, 14] was 5/8 and the “percentage” value [3, 15] was “(100%)”. For the same substance, the responders/carriers of genotype [3, 15] was 1/1, the “percentage” value [3, 16] was “(22.53%)” and the responders/carriers of genotype [3, 16] was 5/24. The “percentage” value [3, 17] was “(31.25%)”, the responders/carriers of genotype [3, 17] was 5/16 and the “percentage” value ([3]; CD95_rs9827641, GEN = 2, GA(N-47)) was “((71.43%)^”. The “percentage” value [3, 18] was “(15%)”, the responders/carriers of genotype [3, 18] was 3/20 and the “percentage” value [3, 19] was “(42.86%)”. For the same substance, the responders/carriers of genotype [3, 19] was 9/21, the “percentage” value [3, 20] was “(83.33%)” and the responders/carriers of genotype [3, 20] was 5/6. For the same substance, the “percentage” value [3, 21] was “(19.35%)”, the responders/carriers of genotype [3, 21] was 6/31 and the “percentage” value [3, 22] was “(66.67%)”. The responders/carriers of genotype [3, 22] was 4/6, the “percentage” value [3, 23] was “(83.33%)” and the responders/carriers of genotype [3, 23] was 5/6. For the same substance, the “percentage” value [3, 24] was “(18.18%)”, the responders/carriers of genotype [3, 24] was 2/11 and the “percentage” value [3, 25] was “(43.75%)”. For the same substance, the responders/carriers of genotype [3, 25] was 7/16, the “percentage” value [3, 26] was “(100%)” and the responders/carriers of genotype [3, 26] was 5/5. For the same substance, the “amelioration of graft rejection” value [4] was “prolongation of skin graft survival and inhibition of functional deterioration of thyroid grafts”, the “relapse rate and CNS activity” value [5] was “effectiveness in reducing relapse rate and CNS activity” and the “binding to MHC class II molecules” value [6] was “very rapid, high, and efficient binding”. For the same substance, the “percentage” value [7, 27] was 62.07%, the responders/carriers of genotype [7, 27] was 18/29 and the “percentage” value [7, 28] was “(90%)”. The responders/carriers of genotype [7, 28] was 9/10, the “percentage” value [7, 29] was “(100%)” and the responders/carriers of genotype [7, 29] was 4/4.
